2 compounds from paper PMC3749252 (Nature chemical biology, 2013) can be followed below.

Assay [1] addresses T1, mouse Smoothened (mSmo) (Mus musculus, UniProt P56726).
T1 sequence (P56726 32-236): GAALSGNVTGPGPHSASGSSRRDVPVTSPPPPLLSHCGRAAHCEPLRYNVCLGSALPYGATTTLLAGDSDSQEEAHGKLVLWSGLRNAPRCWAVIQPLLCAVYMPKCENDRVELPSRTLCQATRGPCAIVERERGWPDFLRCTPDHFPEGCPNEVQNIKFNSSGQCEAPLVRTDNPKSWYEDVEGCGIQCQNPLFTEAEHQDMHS
Briefly: competition of 22-NHC bead binding.

The target of assay [2] is T1, mouse Smoothened (mSmo). Description: competition of binding to 20-OHC affinity beads, immunoblot. Background: A western blot detects proteins with antibodies after separation by electrophoresis.

Turning to `CC(C)CCC[C@](C)(O)[C@H]1CC[C@H]2[C@@H]3CC=C4C[C@@H](O)CC[C@]4(C)[C@H]3CC[C@@]21C` [20(S)-hydroxycholesterol], the “competition of 22-NHC bead binding; 20-OHC affinity beads, immunoblot” value in assay [1] is “Binding of mSmoCRD to 22-NHC beads was competed by 20-OHC and 20-OHC-Pent, but not by 7-OHC”.

Turning to `C[C@H](CCCC(C)(C)O)[C@H]1CC[C@H]2[C@@H]3CC=C4C[C@@H](O)CC[C@]4(C)[C@H]3CC[C@]12C` [25-OHC], the “competition of binding to 20-OHC affinity beads, immunoblot” value in assay [2] was “binding of mSmo and mSmoCRD to 20-OHC beads was competed by the active oxysterol 25-OHC”.
